According to ChEMBL document CHEMBL1130255, “Intensely cytotoxic anthracycline prodrugs: glucuronides” (J Med Chem, 1997):

What was measured:
glucuronidase = assay: Half-life in the presence of Escherichia coli -glucuronidase; type: ADME; conditions: Escherichia coli glucuronidase enzyme
[1] = Half-life when incubated at 37 C in 0.05 M phosphate buffer, pH 7.4, the concentration of 12 uM,; type: ADME

SMILES: CCOC(CCCN)O[C@@H]1O[C@H](C(=O)[O-])[C@@H](O)[C@H](O)[C@H]1O.[Na+] (some centres not stated)
- half-life (glucuronidase): 1.7 h
- half-life at 12 µM [1]: 30 h
